Structures can show the parent of a compound that is named as a salt. Where two headings read alike, the source gives them in different places. Marks after values point to notes of the source that are not given here.
What was measured:
[1] = molecular target: human GluN1/GluN2A (Homo sapiens, UniProt Q05586+Q12879); format: cell-based; settings: for nH (Hill slope, inhibition): 100 µM glutamate plus 30 µM glycine
[2] = molecular target: T1, rat GluN1/GluN2B (Rattus norvegicus, UniProt P35439+Q00960); test: cell-based; format: cell-based; settings: for nH (Hill slope, inhibition): 100 µM glutamate plus 30 µM glycine; for nH (Hill slope): 30 µM glycine
T1 sequence (Q00960 27-1482, other chains not shown): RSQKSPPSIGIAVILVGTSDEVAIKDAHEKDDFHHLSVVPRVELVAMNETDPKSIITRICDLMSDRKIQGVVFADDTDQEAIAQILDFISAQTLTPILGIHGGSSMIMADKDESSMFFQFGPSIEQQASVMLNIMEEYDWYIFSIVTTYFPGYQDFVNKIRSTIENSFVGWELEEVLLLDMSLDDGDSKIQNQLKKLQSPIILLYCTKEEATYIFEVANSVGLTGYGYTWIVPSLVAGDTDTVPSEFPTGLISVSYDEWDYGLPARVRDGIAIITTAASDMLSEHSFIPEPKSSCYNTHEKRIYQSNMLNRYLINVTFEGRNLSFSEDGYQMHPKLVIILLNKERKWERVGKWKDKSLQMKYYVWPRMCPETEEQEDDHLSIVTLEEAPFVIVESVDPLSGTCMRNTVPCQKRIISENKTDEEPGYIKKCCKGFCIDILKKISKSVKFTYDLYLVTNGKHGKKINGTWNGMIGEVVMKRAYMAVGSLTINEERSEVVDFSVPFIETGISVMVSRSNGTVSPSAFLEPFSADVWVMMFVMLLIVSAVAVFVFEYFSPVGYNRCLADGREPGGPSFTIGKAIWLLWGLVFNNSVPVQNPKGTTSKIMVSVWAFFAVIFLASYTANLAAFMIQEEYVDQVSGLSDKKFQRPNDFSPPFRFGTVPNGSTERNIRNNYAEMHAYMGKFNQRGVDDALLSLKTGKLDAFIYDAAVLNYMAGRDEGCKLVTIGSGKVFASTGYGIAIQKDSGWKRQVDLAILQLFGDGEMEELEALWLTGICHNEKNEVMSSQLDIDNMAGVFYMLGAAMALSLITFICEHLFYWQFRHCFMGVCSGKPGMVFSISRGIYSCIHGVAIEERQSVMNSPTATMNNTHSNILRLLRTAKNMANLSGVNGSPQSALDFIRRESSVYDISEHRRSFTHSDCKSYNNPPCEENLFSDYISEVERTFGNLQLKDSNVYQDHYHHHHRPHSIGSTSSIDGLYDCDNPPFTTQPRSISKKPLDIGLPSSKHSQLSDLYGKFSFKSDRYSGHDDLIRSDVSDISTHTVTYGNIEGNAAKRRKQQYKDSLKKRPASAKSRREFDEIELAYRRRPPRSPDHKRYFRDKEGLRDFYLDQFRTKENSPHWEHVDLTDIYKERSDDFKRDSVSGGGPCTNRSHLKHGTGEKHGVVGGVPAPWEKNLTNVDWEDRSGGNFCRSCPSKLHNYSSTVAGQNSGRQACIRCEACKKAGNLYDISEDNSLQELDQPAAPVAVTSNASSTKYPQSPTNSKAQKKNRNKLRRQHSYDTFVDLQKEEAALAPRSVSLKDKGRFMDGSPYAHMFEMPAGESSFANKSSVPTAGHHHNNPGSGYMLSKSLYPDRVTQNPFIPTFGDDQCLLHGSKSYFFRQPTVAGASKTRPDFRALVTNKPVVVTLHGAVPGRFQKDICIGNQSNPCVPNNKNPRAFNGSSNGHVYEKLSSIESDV

[3] = molecular target: human GluN1/GluN2B (Homo sapiens, UniProt Q05586+Q13224); test: cell-based; format: cell-based; settings: for nH (Hill slope, inhibition) / nH (Hill slope) / EC50: human GluN1/GluN2B; for nH (Hill slope, inhibition): 100 µM glutamate plus 30 µM glycine; for nH (Hill slope, inhibition) / EC50: -40 mV
human GluN1/GluN2B, sequence (Q13224 27-1484, other chains not shown): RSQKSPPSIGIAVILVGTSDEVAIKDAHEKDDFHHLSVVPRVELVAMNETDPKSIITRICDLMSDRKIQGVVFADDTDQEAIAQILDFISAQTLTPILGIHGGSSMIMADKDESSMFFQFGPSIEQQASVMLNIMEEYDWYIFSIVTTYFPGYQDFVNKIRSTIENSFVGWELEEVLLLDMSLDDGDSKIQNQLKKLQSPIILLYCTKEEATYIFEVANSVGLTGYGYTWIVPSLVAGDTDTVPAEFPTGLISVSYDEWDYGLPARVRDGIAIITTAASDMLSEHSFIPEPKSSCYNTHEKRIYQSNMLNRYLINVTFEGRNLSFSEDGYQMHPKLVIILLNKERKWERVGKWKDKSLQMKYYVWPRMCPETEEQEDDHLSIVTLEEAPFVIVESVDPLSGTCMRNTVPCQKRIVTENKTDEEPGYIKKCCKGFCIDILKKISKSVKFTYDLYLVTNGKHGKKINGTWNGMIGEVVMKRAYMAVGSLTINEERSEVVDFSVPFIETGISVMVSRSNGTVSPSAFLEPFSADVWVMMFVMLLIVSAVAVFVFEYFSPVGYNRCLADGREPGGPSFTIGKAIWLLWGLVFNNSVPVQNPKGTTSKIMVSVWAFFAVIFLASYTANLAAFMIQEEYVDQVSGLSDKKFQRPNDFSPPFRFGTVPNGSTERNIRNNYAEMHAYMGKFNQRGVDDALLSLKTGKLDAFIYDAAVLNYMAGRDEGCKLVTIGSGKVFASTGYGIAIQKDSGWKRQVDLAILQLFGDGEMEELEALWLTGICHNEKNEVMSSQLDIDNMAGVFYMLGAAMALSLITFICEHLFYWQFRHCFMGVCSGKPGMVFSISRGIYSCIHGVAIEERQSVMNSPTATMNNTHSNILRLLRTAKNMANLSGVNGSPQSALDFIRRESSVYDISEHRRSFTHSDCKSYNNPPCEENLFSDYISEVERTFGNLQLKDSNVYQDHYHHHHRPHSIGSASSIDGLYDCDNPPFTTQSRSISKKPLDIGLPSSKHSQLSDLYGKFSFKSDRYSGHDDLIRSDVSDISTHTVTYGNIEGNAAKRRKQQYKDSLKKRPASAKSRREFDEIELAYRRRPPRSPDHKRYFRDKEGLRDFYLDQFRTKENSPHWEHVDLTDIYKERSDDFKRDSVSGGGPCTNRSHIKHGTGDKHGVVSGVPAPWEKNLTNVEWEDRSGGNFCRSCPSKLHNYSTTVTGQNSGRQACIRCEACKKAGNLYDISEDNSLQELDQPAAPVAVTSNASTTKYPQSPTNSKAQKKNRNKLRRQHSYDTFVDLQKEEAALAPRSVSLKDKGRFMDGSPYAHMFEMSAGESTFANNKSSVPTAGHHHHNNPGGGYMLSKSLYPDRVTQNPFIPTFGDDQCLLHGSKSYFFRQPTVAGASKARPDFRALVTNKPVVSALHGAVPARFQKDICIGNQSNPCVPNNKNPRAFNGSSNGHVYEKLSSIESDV

[4] = molecular target: T2, human GluN1/GluN2D (Homo sapiens, UniProt O15399+Q05586); test: cell-based; format: cell-based
[5] = molecular target: T3, rat GluN1/GluN2D (Rattus norvegicus, UniProt P35439+Q62645); format: cell-based; settings: for nH (Hill slope): 30 µM glycine
[6] = molecular target: human GluN1/GluN2C (Homo sapiens, UniProt Q05586+Q14957, INS1047EPP); test: cell-based; format: cell-based
[7] = molecular target: rat GluN1/GluN2C (Rattus norvegicus, UniProt P35439+Q00961); format: cell-based; settings: for nH (Hill slope): 30 µM glycine
[8] = molecular target: T4, rat GluN1/GluN2A (Rattus norvegicus, UniProt P35439+Q00959); test: Two-electrode voltage-clamp recordings, recombinant receptors in Xenopus oocytes; format: cell-based; settings: for nH (Hill slope, inhibition): 100 µM glutamate plus 30 µM glycine; for nH (Hill slope): 30 µM glycine
[9] = system: human and rat NMDA receptor subtypes; test: Two-electrode voltage-clamp, relative agonist efficacy across subtypes; format: cell-based; settings: range over human and rat subtypes; same recording; 30 µM glycine
[10] = molecular target: T4, rat GluN1/GluN2A; settings: HEK293 cells, 2 mM extracellular Ca2+, ref Vicini et al., 1998; cited from earlier work
[11] = molecular target: T3, rat GluN1/GluN2D; settings: Table 2, ref Hansen and Traynelis, 2011; cited from earlier work
[12] = molecular target: T2, human GluN1/GluN2D; settings: HEK293 cells, 2 mM extracellular Ca2+, ref Hess et al., 1998; cited from earlier work
[13] = molecular target: T1, rat GluN1/GluN2B; settings: HEK293 cells, 2 mM extracellular Ca2+, ref Vicini et al., 1998; cited from earlier work
[14] = rat GluN1/GluN2D, 100 µM glutamate plus 30 µM glycine, -40 mV
[15] = rat GluN1/GluN2C, 100 µM glutamate plus 30 µM glycine, -40 mV
[16] = human GluN1/GluN2D, 100 µM glutamate plus 30 µM glycine
[17] = rat GluN1/GluN2D, 100 µM glutamate plus 30 µM glycine
[18] = rat GluN1/GluN2C, 100 µM glutamate plus 30 µM glycine
[19] = human GluN1/GluN2D, 100 µM glutamate plus 30 µM glycine, -40 mV
[20] = human GluN1/GluN2C, 100 µM glutamate plus 30 µM glycine, -40 mV

human GluN1/GluN2A, sequence (Q12879 23-1464, other chains not shown): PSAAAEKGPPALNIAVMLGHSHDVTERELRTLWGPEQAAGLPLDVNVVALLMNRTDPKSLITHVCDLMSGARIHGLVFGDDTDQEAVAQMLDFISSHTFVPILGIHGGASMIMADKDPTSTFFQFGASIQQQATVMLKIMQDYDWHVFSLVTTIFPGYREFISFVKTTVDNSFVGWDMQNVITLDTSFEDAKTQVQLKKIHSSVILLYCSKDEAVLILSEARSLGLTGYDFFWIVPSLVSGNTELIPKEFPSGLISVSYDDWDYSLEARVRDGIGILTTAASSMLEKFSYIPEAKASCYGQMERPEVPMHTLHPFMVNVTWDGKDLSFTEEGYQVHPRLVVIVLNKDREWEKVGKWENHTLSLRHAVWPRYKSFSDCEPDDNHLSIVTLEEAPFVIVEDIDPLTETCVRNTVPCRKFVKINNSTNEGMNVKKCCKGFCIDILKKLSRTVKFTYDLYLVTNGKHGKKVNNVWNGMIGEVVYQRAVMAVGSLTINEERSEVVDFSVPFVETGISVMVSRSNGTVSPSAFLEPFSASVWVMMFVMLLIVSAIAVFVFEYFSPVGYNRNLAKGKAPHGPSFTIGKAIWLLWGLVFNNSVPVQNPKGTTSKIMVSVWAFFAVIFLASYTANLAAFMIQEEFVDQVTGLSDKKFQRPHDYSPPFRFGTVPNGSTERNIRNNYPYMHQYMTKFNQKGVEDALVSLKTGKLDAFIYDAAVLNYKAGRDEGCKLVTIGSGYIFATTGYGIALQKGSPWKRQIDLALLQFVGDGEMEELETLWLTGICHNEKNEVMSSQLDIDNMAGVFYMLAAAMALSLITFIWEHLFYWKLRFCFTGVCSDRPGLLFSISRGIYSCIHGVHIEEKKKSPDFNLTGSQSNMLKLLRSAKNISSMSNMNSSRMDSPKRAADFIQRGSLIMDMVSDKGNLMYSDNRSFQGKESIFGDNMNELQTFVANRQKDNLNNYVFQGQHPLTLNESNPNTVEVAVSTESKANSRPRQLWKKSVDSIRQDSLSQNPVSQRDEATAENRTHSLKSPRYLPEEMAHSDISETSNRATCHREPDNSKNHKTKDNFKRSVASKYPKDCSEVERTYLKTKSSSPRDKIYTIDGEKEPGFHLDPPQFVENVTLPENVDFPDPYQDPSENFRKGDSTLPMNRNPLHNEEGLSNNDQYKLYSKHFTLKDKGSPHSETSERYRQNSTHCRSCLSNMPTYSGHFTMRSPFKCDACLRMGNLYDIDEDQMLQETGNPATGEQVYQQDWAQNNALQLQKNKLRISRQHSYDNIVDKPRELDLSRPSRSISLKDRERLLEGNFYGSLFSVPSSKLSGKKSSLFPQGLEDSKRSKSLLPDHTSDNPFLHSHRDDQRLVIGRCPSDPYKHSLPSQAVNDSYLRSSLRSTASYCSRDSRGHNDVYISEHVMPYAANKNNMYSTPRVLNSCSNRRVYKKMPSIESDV

CN[C@]1(c2ccccc2Cl)CCCCC1=O [(+)ketamine, S-(+)-ketamine hydrochloride]
nH (Hill slope, inhibition) ([1]; -40 mV): 1.0 | IC50 fold lower at rat compared to corresponding human subtype ([2]; GluN1/GluN2B, rat vs human): 1.6 fold | nH (Hill slope, inhibition) ([2]; rat GluN1/GluN2B, -40 mV): 0.9 | nH (Hill slope, inhibition) [3]: 1.0 | IC50 [4]: 2.4 ± 0.1 µM | nH (Hill slope, inhibition) [4]: 0.9 | IC50 fold lower at rat compared to corresponding human subtype ([5]; GluN1/GluN2D, rat vs human): 1.7 fold | nH (Hill slope, inhibition) [5, 14]: 1.0 | IC50 [6]: 0.79 ± 0.04 µM | nH (Hill slope, inhibition) [6]: 0.9 | nH (Hill slope, inhibition) [7, 15]: 1.0 | nH (Hill slope, inhibition) ([8]; rat GluN1/GluN2A, -40 mV): 1.0

COc1ccc(OCC2c3cc(OC)c(OC)cc3CCN2C(=O)c2cccc(Cl)c2)cc1 (centres unmarked) [CIQ, (3-chlorophenyl) [3,4-dihydro-6,7-dimethoxy-1-[(4-methoxyphenoxy)methyl]-2(1H)-isoquinolinyl]methanone]
maximal potentiation compared to NMDA receptor currents in the absence of CIQ [4, 16]: 250 ± 10 | nH (Hill slope, potentiation) [4, 16]: 1.3 | maximal potentiation compared to NMDA receptor currents in the absence of CIQ [5, 17]: 240 ± 20 | nH (Hill slope, potentiation) [5, 17]: 1.3 | nH (Hill slope, potentiation) ([6]; human GluN1/GluN2C, 100 µM glutamate plus 30 µM glycine): 1.6 | maximal potentiation compared to NMDA receptor currents in the absence of CIQ [7, 18]: 260 ± 30 | nH (Hill slope, potentiation) [7, 18]: 1.1

CN[C@H](CC(=O)O)C(=O)O [NMDA, N-methyl-D-aspartate]
maximal activation compared to maximal activation by the full agonist glutamate [9]: 69–89% | nH (Hill slope) ([1]; 30 µM glycine): 1.3 | EC50 ([1]; continuous presence of 30 µM glycine, -40 mV): 68 ± 3 µM | nH (Hill slope) ([2]; rat GluN1/GluN2B): 1.7 | EC50 ([2]; rat GluN1/GluN2B, continuous presence of 30 µM glycine, -40 mV): 21 ± 4 µM | nH (Hill slope) ([3]; 30 µM glycine): 1.4 | EC50 ([3]; continuous presence of 30 µM glycine): 23 ± 2 µM | EC50 [4]: 6.7 ± 0.2 µM | nH (Hill slope) [4]: 2.1 | nH (Hill slope) ([5]; rat GluN1/GluN2D): 1.7 | EC50 ([5]; rat GluN1/GluN2D, continuous presence of 30 µM glycine, -40 mV): 7.9 ± 0.9 µM | EC50 [6]: 19 ± 1 µM | nH (Hill slope) [6]: 1.2 | nH (Hill slope) ([7]; rat GluN1/GluN2C): 1.4 | EC50 ([7]; rat GluN1/GluN2C, continuous presence of 30 µM glycine, -40 mV): 19 ± 2 µM | nH (Hill slope) ([8]; rat GluN1/GluN2A): 1.5 | EC50 ([8]; rat GluN1/GluN2A, continuous presence of 30 µM glycine, -40 mV): 71 ± 9 µM

COc1ccc2nc(/C=C/c3cccc([N+](=O)[O-])c3)n(-c3ccc(C(=O)O)cc3)c(=O)c2c1 [QNZ46, (E)-4-(6-methoxy-2-(3-nitrostyryl)-4-oxoquinazolin-3(4H)-yl)-benzoic acid]
IC50 [2]: > 100 µM | IC50 [3]: > 100 µM | nH (Hill slope, inhibition) [4, 19]: 1.0 | nH (Hill slope, inhibition) [5, 14]: 1.0 | nH (Hill slope, inhibition) [6, 20]: 1.0 | IC50 fold higher at rat compared to human ([7]; GluN1/GluN2C, rat vs human): 1.2 fold | nH (Hill slope, inhibition) [7, 15]: 1.2

NC(=NCc1ccc(Cl)cc1)SCCCc1cnc[nH]1 [clobenpropit, N-(4-chlorobenzyl)-S-[3-(4(5)-imidazolyl)propyl]isothiourea dihydrobromide]
nH (Hill slope, inhibition) ([1]; -40 mV): 1.0 | nH (Hill slope, inhibition) ([2]; rat GluN1/GluN2B, -40 mV): 1.3 | nH (Hill slope, inhibition) [3]: 1.0 | nH (Hill slope, inhibition) [4, 19]: 1.0 | nH (Hill slope, inhibition) [5, 14]: 0.9 | nH (Hill slope, inhibition) [6, 20]: 0.9 | nH (Hill slope, inhibition) [7, 15]: 0.8 | IC50 fold higher at rat compared to human ([8]; GluN1/GluN2A, rat vs human): 1.9 fold

OC(CN1CCC(Cc2ccc(F)cc2)CC1)c1ccc(Cl)cc1 (stereo not drawn) [eliprodil, α-(4-chlorophenyl)-4-[(4-fluorophenyl)methyl]-1-piperidineethanol]
nH (Hill slope, inhibition) ([2]; rat GluN1/GluN2B, -40 mV): 1.2 | nH (Hill slope, inhibition) [3]: 1.3

N[C@@H](CCC(=O)O)C(=O)O [glutamate, L-glutamic acid]
nH (Hill slope) ([1]; 30 µM glycine): 1.3 | nH (Hill slope) ([2]; rat GluN1/GluN2B): 1.5 | nH (Hill slope) ([3]; 30 µM glycine): 1.8 | nH (Hill slope) [4]: 1.5 | τdeactivation glutamate (weighted time constant) [10]: 54 ^k ms | nH (Hill slope) ([5]; rat GluN1/GluN2D): 1.5 | nH (Hill slope) [6]: 1.6 | nH (Hill slope) ([7]; rat GluN1/GluN2C): 1.4 | τdeactivation following removal of glutamate [11]: > 2 s | τdeactivation glutamate (weighted time constant) [12]: 6300 ^a ms | nH (Hill slope) ([8]; rat GluN1/GluN2A): 1.4 | τdeactivation glutamate (weighted time constant) [13]: 287 ^k ms

NCC(=O)O [glycine]
nH (Hill slope) ([1]; 100 µM glutamate): 1.3 | nH (Hill slope) ([3]; 100 µM glutamate): 1.7 | EC50 ([3]; continuous presence of 100 µM glutamate): 0.29 ± 0.04 µM | EC50 [4]: 0.12 ± 0.01 µM | nH (Hill slope) [4]: 1.8 | EC50 [6]: 0.25 ± 0.01 µM | nH (Hill slope) [6]: 1.6 | τdeactivation glycine (weighted time constant) [12]: 1800 ^a ms

CC(C(O)c1ccc(O)cc1)N1CCC(Cc2ccccc2)CC1 (stereo not drawn) [ifenprodil, (1R*,2S*)-erythro-2-(4-benzylpiperidino)-1-(4-hydroxyphenyl)-1-propanol hemitartrate]
nH (Hill slope, inhibition) ([2]; rat GluN1/GluN2B, -40 mV): 1.2 | nH (Hill slope, inhibition) [3]: 1.1 | nH (Hill slope, inhibition) ([8]; rat GluN1/GluN2A, -40 mV): 1.2

CC12CC3CC(C)(C1)CC(N)(C3)C2 [memantine, memantine hydrochloride]
nH (Hill slope, inhibition) ([1]; -40 mV): 1.1 | nH (Hill slope, inhibition) [3]: 1.0 | nH (Hill slope, inhibition) [4]: 0.9 | nH (Hill slope, inhibition) [6]: 1.0
